Experimental data as given in patent US9308195B2, “Non-aqueous taxane formulations and methods of using the same” (Teikoku Pharma USA, Inc., priority 2012, dated 2016).

Assay: Solubility of anhydrous docetaxel in PEG 400 or PEG 300
Type: physicochemical
Settings: per 1 g of PEG 300; ultrasonic dispersion for 5 minutes at 70-80° C.
Experimental: Formulations of anhydrous docetaxel and either PEG 400 or PEG 300 were prepared and mixed using ultrasonic dispersion for 5 minutes at 70-80° C. 1 g of PEG 400 dissolved 25 mg of anhydrous docetaxel. […] 1 g of PEG 300 dissolved 100 mg of anhydrous docetaxel. Accordingly, PEG 300 was able to better solubilize anhydrous docetaxel.

CC(=O)O[C@@]12CO[C@@H]1C[C@H](O)[C@@]1(C)C(=O)[C@H](O)C3=C(C)[C@@H](OC(=O)[C@H](O)[C@@H](NC(=O)OC(C)(C)C)c4ccccc4)C[C@@](O)([C@@H](OC(=O)c4ccccc4)[C@H]21)C3(C)C [anhydrous docetaxel, (2R,3S)-N-carboxy-3-phenylisoserine,Ntert-butyl ester, 13-ester with 5β-20-epoxy-1,2α,4,7β,10β,13α-hexahydroxytax-11-en-9-one 4-acetate 2-benzoate]
amount of anhydrous docetaxel dissolved by 1 g of PEG 300: ≥ 100 mg
